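Where inhibition never reached the appropriate level, the endpoint shown equals the highest concentration tested. Otherwise, values were interpolated linearly from a five-concentration, 48-hour dose response in 96-well plates. At the TGI there is no net growth.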
Assays:
Experiment in all cases: DTP human tumour cell line panel, 48 h
[1] = tested on: 786-0 renal
[2] = tested on: OVCAR-8 ovarian
[3] = tested on: MDA-MB-231 breast
[4] = tested on: SK-MEL-28 melanoma
[5] = tested on: A549 NSCLC
[6] = tested on: MALME-3M melanoma
[7] = tested on: T-47D breast
[8] = tested on: KM12 colon
[9] = tested on: IGROV1 ovarian
[10] = tested on: MCF7 breast
[11] = tested on: SK-OV-3 ovarian
[12] = tested on: LOX IMVI melanoma
[13] = tested on: CAKI-1 renal
[14] = tested on: M14 melanoma
[15] = tested on: ACHN renal
[16] = tested on: HCT-15 colon
[17] = tested on: CCRF-CEM leukemia
[18] = tested on: BT-549 breast
[19] = tested on: NCI-H23 lung
[20] = tested on: SN12C renal
[21] = tested on: HCC-2998 colon
[22] = tested on: RXF 393 renal
[23] = tested on: HOP-62 NSCLC
[24] = tested on: SF-268 CNS
[25] = tested on: OVCAR-3 ovarian
[26] = tested on: UO-31 renal
[27] = tested on: U251 CNS
[28] = tested on: TK-10 renal
[29] = tested on: HCT-116 colon
[30] = tested on: COLO 205 colon
[31] = tested on: SR leukemia
[32] = tested on: HT29 colon
[33] = tested on: HS 578T breast
[34] = tested on: DU-145 prostate
[35] = tested on: NCI-H226 lung
[36] = tested on: SF-295 CNS
[37] = tested on: SK-MEL-2 melanoma
[38] = tested on: NCI-H460 lung
[39] = tested on: SW-620 colon
[40] = tested on: SNB-75 CNS
[41] = tested on: SNB-19 CNS
[42] = tested on: SF-539 CNS
[43] = tested on: MDA-MB-435
[44] = tested on: RPMI-8226 leukemia
[45] = tested on: A498 renal
[46] = tested on: HL-60(TB) leukemia
[47] = tested on: PC-3 prostate
[48] = tested on: OVCAR-4 ovarian
[49] = tested on: UACC-62 melanoma
[50] = tested on: OVCAR-5 ovarian
[51] = tested on: EKVX NSCLC
[52] = tested on: MOLT-4 leukemia
[53] = tested on: HOP-92 NSCLC
[54] = tested on: K-562 leukemia
[55] = tested on: NCI/ADR-RES ovarian
[56] = tested on: MDA-N
[57] = tested on: UACC-257 melanoma
[58] = tested on: NCI-H522 lung
[59] = tested on: SK-MEL-5 melanoma

Structure (SMILES): COc1ccc2cc(CNCCCN3CCN(CCCNCc4ccc5cc(OC)ccc5c4)CC3)ccc2c1
- TGI [1]: 2.88 µM
- TGI [2]: 3.21 µM
- TGI [3]: 3.42 µM
- TGI [4]: 3.09 µM
- TGI [5]: 3.31 µM
- TGI [6]: 3.14 µM
- TGI [7]: 3.19 µM
- TGI [8]: 2.14 µM
- TGI [9]: 3.12 µM
- TGI [10]: 2.85 µM
- TGI [11]: 2.72 µM
- TGI [12]: 1.48 µM
- TGI [13]: 3.2 µM
- TGI [14]: 3.01 µM
- TGI [15]: 3.19 µM
- TGI [16]: 3.01 µM
- TGI [17]: 1.3 µM
- TGI [18]: 3.26 µM
- TGI [19]: 3.5 µM
- TGI [20]: 3.11 µM
- TGI [21]: 0.643 µM
- TGI [22]: 2.85 µM
- TGI [23]: 3.13 µM
- TGI [24]: 3.32 µM
- TGI [25]: 3.02 µM
- TGI [26]: 3.14 µM
- TGI [27]: 3.13 µM
- TGI [28]: 3.3 µM
- TGI [29]: 2.56 µM
- TGI [30]: 2.83 µM
- TGI [31]: 0.658 µM
- TGI [32]: 1.65 µM
- TGI [33]: 3.32 µM
- TGI [34]: 2.88 µM
- TGI [35]: 3.69 µM
- TGI [36]: 3.34 µM
- TGI [37]: 3.42 µM
- TGI [38]: 2.87 µM
- TGI [39]: 0.982 µM
- TGI [40]: 3.08 µM
- TGI [41]: 3.18 µM
- TGI [42]: 3.39 µM
- TGI [43]: 2.99 µM
- TGI [44]: 0.577 µM
- TGI [45]: 3.07 µM
- TGI [46]: 0.594 µM
- TGI [47]: 2.36 µM
- TGI [48]: 3.48 µM
- TGI [49]: 1.36 µM
- TGI [50]: 2.6 µM
- TGI [51]: 3.18 µM
- TGI [52]: 5.72 µM
- TGI [53]: 2.82 µM
- TGI [54]: 0.366 µM
- TGI [55]: 6.51 µM
- TGI [56]: 2.78 µM
- TGI [57]: 3.86 µM
- TGI [58]: 3.81 µM
- TGI [59]: 3.05 µM
